{
  "source": "patent US6297268A",
  "about": "“Imidazoles as cholesterol lowering agents” (Schering Corporation, priority 1999, dated 2001)",
  "key": {"[1]": {"tested_on": "serum cholesterol", "test": "Cholesterol lowering properties of the compound of Formula II in rats: serum cholesterol", "format": "in vivo, rat (Crl:CD(SD)BR VAF/Plus)", "details": "for Group Mean Serum Cholesterol: single daily oral doses (gavage), at necropsy after 15-16 doses; for serum cholesterol (result in words): oral", "description": "(§1) A homogeneous suspension of the compound of Formula II in aqueous methyl cellulose (aqueous methyl cellulose concentration: 0.4 percent weight/volume) was prepared for these studies and stored at ambient temperature conditions. The amount of the suspension fed to each rat was calculated to provide the desired dosage of the compound of Formula II (see below) for that rat.\n(§2) Six-week-old rats (Rat/Crl:CD®(SD)BR VAF/Plus®, supplied by Charles River Laboratories, Kingston, N.Y.; ten rats per sex per group) were given single daily oral doses (via gavage tube) of the compound of Formula II (30, 100 or 300 mg/kg of body weight of the rat) as the above-stated suspension for 15 to 16 days. […] The rats were housed individually in suspended stainless steel wire mesh cages and were fed with a meal of Certified Rodent Diet® 5002 available from PMI® Feeds, Incorporated, St. Louis, Mo. Tap water was provided ad libitum during the study period. Blood was collected at necropsy over two days (after 15-16 doses), and serum chemistry parameters were measured.\n(§3) The results obtained at necropsy (after 15-16 doses) are given in Table 1 for both the male and female rats: […]"}, "[2]": {"tested_on": "serum triglyceride", "test": "Cholesterol lowering properties of the compound of Formula II in rats: serum triglycerides", "format": "in vivo, rat (Crl:CD(SD)BR VAF/Plus)", "details": "for Group Mean Serum Triglyceride Concentrations: single daily oral doses (gavage)", "description": "as §1, §2, §3"}, "[3]": {"test": "Plasma levels and pharmacokinetics in monkeys", "format": "in vivo, cynomolgus monkey (Macaca fascicularis)", "details": "oral, plasma levels after one and 16 doses", "description": "(§4) Adult cynomolgus monkeys (four per sex per group, Macaca fascicularis monkey, supplied by Charles River BRF Incorporated, Houston, Tex.) were given single daily oral doses (gavage) of the compound of Formula II (30, 100 or 300 mg/kg of body weight) in the form of the above-stated suspension for 16 to 18 days. […] The monkeys were fed with nutritionally adequate amounts of PMI Inc. Certified Primate Diet® #46 (available from PMI Feeds, Incorporated) daily, at least one hour after dosing was completed. Certified monkey treats were offered daily. Tap water was provided ad libitum. Blood was collected and serum chemistry parameters were measured twice pretest and after 14 daily doses (22 hours after the 14th dose)."}, "[4]": {"tested_on": "serum cholesterol", "test": "Cholesterol lowering properties of the compound of Formula II in monkeys: serum cholesterol", "format": "in vivo, cynomolgus monkey (Macaca fascicularis)", "details": "for % change in group mean serum cholesterol from last pretest to after 14 doses: daily oral (gavage), 22 hours after 14th dose", "description": "Similar to Example 2, a homogeneous suspension of the compound of Formula II in aqueous methyl cellulose (0.4 percent weight/volume) was prepared for these studies and stored at ambient temperature conditions. The amount of the suspension fed to each monkey was calculated to provide the desired dosage of the compound of Formula II (given below) for that monkey.\nas §4\nMild to moderate decreases in serum cholesterol, compared with pretest and concurrent and/or historical control data, occurred in all dosed monkeys. The decreases were generally dose-dependent, except that there was no real difference between mid- and high-dose females."}, "[5]": {"test": "Plasma analysis to confirm absorption in rats", "format": "in vivo, rat (Crl:CD(SD)BR VAF/Plus)", "details": "oral, plasma analysis after one and 14 doses", "description": "as §2, with “Blood was collected at necropsy over two days (after 15-16 doses), and serum chemistry parameters were measured.” left out"}},
  "data": [
    {"smiles": "O=C(NCc1ccc(Cc2c[nH]cn2)cc1)Nc1cc(Cl)cc(Cl)c1", "note": "[compound of Formula II]", "values": [
      {"measurement": "Group Mean Serum Cholesterol", "setting": "[1]; female rats, 30 mg/kg, control 29.7", "result": 26.5, "unit": "mg/dL"},
      {"measurement": "Group Mean Serum Cholesterol", "setting": "[1]; female rats, 100 mg/kg, control 29.7", "result": 19.4, "unit": "mg/dL"},
      {"measurement": "Group Mean Serum Cholesterol", "setting": "[1]; female rats, 300 mg/kg, control 29.7", "result": 16.0, "unit": "mg/dL"},
      {"measurement": "serum cholesterol (result in words)", "setting": "[1]; female rats, 100 or 300 mg/kg, compared with concurrent control", "result": "Lower serum cholesterol concentrations"},
      {"measurement": "Group Mean Serum Cholesterol", "setting": "[1]; male rats, 30 mg/kg, control 34.7", "result": 20.9, "unit": "mg/dL"},
      {"measurement": "Group Mean Serum Cholesterol", "setting": "[1]; male rats, 100 mg/kg, control 34.7", "result": 16.9, "unit": "mg/dL"},
      {"measurement": "Group Mean Serum Cholesterol", "setting": "[1]; male rats, 300 mg/kg, control 34.7", "result": 12.3, "unit": "mg/dL"},
      {"measurement": "serum cholesterol (result in words)", "setting": "[1]; male rats, 30, 100 or 300 mg/kg", "result": "dose-dependent lower serum cholesterol"},
      {"measurement": "Group Mean Serum Triglyceride Concentrations", "setting": "[2]; female rats, 30 mg/kg, at necropsy after 15-16 doses, control 22.4", "result": 20.5, "unit": "mg/dL"},
      {"measurement": "Group Mean Serum Triglyceride Concentrations", "setting": "[2]; female rats, 100 mg/kg, after 15-16 doses, control 22.4, *group mean excludes individuals with values <10, actual mean would be lower", "result": 13.6, "unit": "mg/dL"},
      {"measurement": "Group Mean Serum Triglyceride Concentrations", "setting": "[2]; female rats, 300 mg/kg, after 15-16 doses, control 22.4, *group mean excludes individuals with values <10, actual mean would be lower", "result": 16.3, "unit": "mg/dL"},
      {"measurement": "serum triglyceride (result in words)", "setting": "[2]; male and female rats, 100 or 300 mg/kg, oral", "result": "Lower serum triglyceride concentrations"},
      {"measurement": "Group Mean Serum Triglyceride Concentrations", "setting": "[2]; male rats, 30 mg/kg, at necropsy after 15-16 doses, control 40.7", "result": 37.2, "unit": "mg/dL"},
      {"measurement": "Group Mean Serum Triglyceride Concentrations", "setting": "[2]; male rats, 100 mg/kg, at necropsy after 15-16 doses, control 40.7", "result": 27.8, "unit": "mg/dL"},
      {"measurement": "Group Mean Serum Triglyceride Concentrations", "setting": "[2]; male rats, 300 mg/kg, at necropsy after 15-16 doses, control 40.7", "result": 21.2, "unit": "mg/dL"},
      {"measurement": "absorption (result in words)", "setting": "[3]", "result": "confirm absorption"},
      {"measurement": "cholesterol (result in words)", "setting": "[4]; all monkeys dosed with 30, 100 or 300 mg/kg, oral", "result": "mildly to moderately decreased cholesterol"},
      {"measurement": "% change in group mean serum cholesterol from last pretest to after 14 doses", "setting": "[4]; female monkeys, 30 mg/kg, control -03", "result": -24, "unit": "%"},
      {"measurement": "% change in group mean serum cholesterol from last pretest to after 14 doses", "setting": "[4]; female monkeys, 100 mg/kg, control -03, *n=3, excludes No. 22F, sacrificed on Day 9", "result": -63, "unit": "%"},
      {"measurement": "% change in group mean serum cholesterol from last pretest to after 14 doses", "setting": "[4]; female monkeys, 300 mg/kg, control -03", "result": -59, "unit": "%"},
      {"measurement": "% change in group mean serum cholesterol from last pretest to after 14 doses", "setting": "[4]; male monkeys, 30 mg/kg, control +02", "result": -25, "unit": "%"},
      {"measurement": "% change in group mean serum cholesterol from last pretest to after 14 doses", "setting": "[4]; male monkeys, 100 mg/kg, control +02", "result": -46, "unit": "%"},
      {"measurement": "% change in group mean serum cholesterol from last pretest to after 14 doses", "setting": "[4]; male monkeys, 300 mg/kg, control +02", "result": -61, "unit": "%"},
      {"measurement": "absorption (result in words)", "setting": "[5]", "result": "confirm absorption"}
    ]}
  ]
}
